Measured values from patent US20050273177A1, “Prosthetic device having drug delivery properties” (priority 2004, published 2005).

Assay: In vitro PGE-1 elution from coated stents overlaid with a permeable polymer membrane, measured by HPLC
Format: physicochemical
Experimental: Various materials presently used in pharmaceutical preparations as solubilizers, crystallization inhibitors, suspension stabilizers and lyophilization agents were mixed with PGE-1. The mixtures were dissolved in solvent systems composed of ethanol, chloroform, water, or mixtures thereof. Prior to coating, stents (provided by different stent manufacturers) were cleaned by sonification in absolute ethanol for thirty minutes, and dried. Each stent was weighed before and after coating. The amount of PGE-1 in the coating solution was determined by high performance liquid chromatography analysis (HPLC), and used to calculate the percent by weight of PGE-1 on the stent. To confirm this value, the coating was dissolved (from the stent) and the PGE-1 content analyzed by HPLC.
Drug coatings on the stents were assessed using scanning electron microscopy (SEM) for: (a) smoothness, (b) uniformity, and (c) lack of cracking. Stents that met these criteria, were overlaid with a thin membrane of non-erodable polymer matrix to retard the release of PGE-1 from the surface of the stents. Vapor-deposition of the polymer matrix was carried out according to the manufacturer's protocol, and the thickness of the polymer matrix membrane was measured using a Tencor device.
Using the most desirable coating combination, twenty coronary stents were coated with either 100 micrograms or 250 micrograms of PGE-1, and overlaid with the polymer matrix membrane. Five stents from each drug concentration were expanded by insertion of a balloon catheter. The stents were examined by SEM after deposition of the pharmaceutical layer 14, after applying the membrane 16, and after expansion of the stents 12.
PGE-1 elution profiles were determined for each group of stents 12. In vitro PGE-1 release curves were performed using HPLC. Drug elution profiles were measured in phosphate buffered saline (pH 7.4) using a LabQuake 360° degree rotator, at ambient temperature. At each time point, the stents were removed from the one milliliter sample (typically, after 24 hours) and transferred to the next aliquot. HPLC analysis of the eluent was performed using a Waters Alliance system equipped with a 996 photodiode array detector.
HPLC Program Conditions/Settings:
Column: 4.6 mm×150 mm Reverse Phase C18
Photo-diode array UV detector set to scan 190 to 300 nm
Solvent system: 35% Acetonitrile/65% water with 0.1% acetic acid
In Example 2 a second set of twenty stents were coated as described above, except the polymer membrane overcoat 16 was twice the thickness as the former.

Compound: CCCCC[C@H](O)/C=C/[C@H]1[C@H](O)CC(=O)[C@@H]1CCCCCCC(=O)O [PGE-1, prostaglandin E-1]
- Period of initial burst of PGE-1 release (FIGS. 2A and 2B, thinner membrane, 100 or 250 μg PGE-1): 48-96 hours
- Duration of slow, sustained release of the drug (FIGS. 2A and 2B, thinner membrane, after the initial burst): approximately sixty
- Release profile with thicker polymer overcoat compared with thinner membrane (FIGS. 3A and 3B, membrane twice the thickness): initial release of PGE-1 is delayed and the overall amount of PGE-1 eluted from the stents 12 over time is reduced
- PGE-1 Released (%) (Study 1, 73 days, expanded stent coated with 100 μg PGE-1, PBS pH 7.4, ambient temperature): 82%
- PGE-1 Released (%) (Study 1, 73 days, expanded stent coated with 250 μg PGE-1, PBS pH 7.4, ambient temperature): 83%
- PGE-1 Released (%) (Study 1, 73 days, unexpanded stent coated with 100 μg PGE-1, PBS pH 7.4, ambient temperature): 37%
- PGE-1 Released (%) (Study 1, 73 days, unexpanded stent coated with 250 μg PGE-1, PBS pH 7.4, ambient temperature): 46%
- PGE-1 Released (%) (Study 2 (membrane twice the thickness), 35 days, expanded stent coated with 100 μg PGE-1, PBS pH 7.4): 71%
- PGE-1 Released (%) (Study 2 (membrane twice the thickness), 35 days, expanded stent coated with 250 μg PGE-1, PBS pH 7.4): 26%
- PGE-1 Released (%) (Study 2 (membrane twice the thickness), 35 days, unexpanded stent coated with 100 μg PGE-1, PBS pH 7.4): 19%
- PGE-1 Released (%) (Study 2 (membrane twice the thickness), 35 days, unexpanded stent coated with 250 μg PGE-1, PBS pH 7.4): 26%
